# Assay results taken from PMC11574108, “4-Furanylvinylquinoline derivative as a new scaffold for the design of oxidative stress initiator and glucose transporter inhibitor drugs” (Scientific Reports, 2024).
# What was measured:
# HCT 116 p53+/+ = test: Monolayer antiproliferative MTS assay; assay type: cell-based, human; settings: 2D monolayer
# Text: (§1) The human colon carcinoma cell line HCT 116 with wild-type p53 (p53^+/+) and the human glioblastoma cell line U-251 were obtained from ATCC, while the HCT 116 with a p53 deletion (p53^−/−) was kindly provided by Prof. M. Rusin from the Maria Sklodowska-Curie Memorial Cancer Center and Institute of Oncology in Gliwice, Poland. The human chronic myelogenous leukaemia cell line K562 and the normal human cell dermal fibroblast cell line NHDF were purchased from Sigma-Aldrich and PromoCell, respectively. Both the HCT 116 and U-251 cell lines were cultured in Dulbecco’s modified Eagle’s medium (DMEM) supplemented with 10% inactivated foetal bovine serum (FBS). The DMEM for the NHDF contained 15% non-inactivated FBS. K562 cells were cultured in RPMI medium completed by 10% inactivated FBS. Additionally, the media were supplemented with antibiotics (streptomycin and penicillin – 1% v/v; Sigma-Aldrich). The cell culture was conducted in 75 cm^2 flasks (Nunc) under standard conditions (37 °C, 5% CO2 humidified atmosphere). Furthermore, the cell lines were frequently tested for mycoplasma using the qRT-PCR technique with specific Mycoplasma primers to confirm the lack of contamination.
# (§2) The cells were seeded in 96-well plates (Nunc) with 5,000 or 4,000 cells per well for the cancer cells and NHDF, respectively, and incubated under standard conditions at 37 °C overnight. The culture media were then changed for freshly prepared solutions of the tested compounds in various concentrations. After 72-h incubation the antiproliferative assay was carried out as follows: the solutions of the compounds were changed in each well to 100 µL DMEM without phenol red and 20 µL of CellTiter 96 AQueous One Solution-MTS (Promega). The plates were incubated for 1 h at 37 °C, and the absorbance was then measured at 490 nm using a multi-plate reader (Synergy 4, BioTek). The experiment for each sample was repeated at least three times.
# (§3) Additionally, the compounds were also tested for their cytotoxicity against normal cells – human dermal fibroblasts (NHDF).
# HCT 116 p53-/- = test: Monolayer antiproliferative MTS assay; assay type: cell-based, human; settings: 2D monolayer
# Text: as §1, §2, §3
# NHDF = test: Monolayer MTS cytotoxicity against normal cells; assay type: cell-based; settings: NHDF, normal human dermal fibroblasts, 72-h incubation
# Text: as §1, §2, §3
# U-251 = test: Monolayer antiproliferative MTS assay; assay type: cell-based, human
# Text: as §1
# as §2, with “times. The results are presented as the half-maximal inhibitory concentration (IC50) values, which were estimated in comparison to untreated cells (control) and calculated using GraphPad Prism v.8.0 (USA).” for “times.”
# (§4) However, the antiproliferative activity of derivative 13 with furan a ring was surprising. […] For this purpose, we selected two pancreatic cancer cell lines: AsPC-1, which is characterised by a deletion of the p53 protein[20] and PANC-1, which carries an R273H mutation. This mutation also occurred in the glioblastoma U-251 cell line[22],[23]. An additional non-adherent line that carries the TP53 mutation that results in the absence of p53 is the K562 leukemic cell line[24]. […] Moreover, 13 was selective toward […], as indicated by its SI values (3.35–9.41). Among all of the tested cell lines, the highest activity of the compound was found against the HCT 116 cells with the wild-type p53 protein (0.069 µM). […] The p53 protein also interacts with the metabolic pathways that are associated with glucose transport[25] as well as small molecules. In light of the above-mentioned facts, we also determined the cytotoxicity of the GLUT inhibitor BAY-876, which is based on a quinoline scaffold. […] Furthermore, BAY-876 was also toxic to normal cells.
# AsPC-1 = test: Monolayer antiproliferative MTS assay; assay type: cell-based, human; settings: 2D monolayer
# Experimental: as §2, with “times. The results are presented as the half-maximal inhibitory concentration (IC50) values, which were estimated in comparison to untreated cells (control) and calculated using GraphPad Prism v.8.0 (USA).” for “times.”
# as §4
# PANC-1 = test: Monolayer antiproliferative MTS assay; assay type: cell-based, human; settings: 2D monolayer
# Experimental: as §2, with “times. The results are presented as the half-maximal inhibitory concentration (IC50) values, which were estimated in comparison to untreated cells (control) and calculated using GraphPad Prism v.8.0 (USA).” for “times.”
# as §4
# GLUT-1 = test: qRT-PCR, GLUT-1 mRNA expression; assay type: cell-based, human; settings: HCT 116 p53-/-, 24 and 48 h
# Experimental: The cells were seeded in 35 mm Petri dishes at a density of 500,000 cells and incubated at 37 °C for 24 h. The total RNA was isolated after incubation with solutions of 13 (0.5 µM and 1.0 µM) for 24 h and 48 h, respectively. The isolation from the samples was carried out according to a TRIzol™ Reagent protocol (Thermo Fisher Scientific). Synthesis of cDNA was performed with 2 µg of total RNA using a GoScript™ Reverse Transcriptase kit (Promega) with Oligo(dT)23 Primers. Real-Time PCR was carried out using a CFX96 Touch™ Real-Time PCR Detection System (Bio-Rad) in 10 µL reaction volume. Each sample contained SsoAdvanced™ Universal SYBR Green Supermix (Bio Rad), a specific primer pair mix (0.5 µM each), and 1 µL of cDNA. […] The obtained data were analysed based on a comparison of the expression of the target genes and normalized to a reference gene (GAPDH) using the Livak-Schmittgen (2^−ΔΔCT) method. […]
# To verify the effect of derivative 13 on glucose transporters at the mRNA level, the expression of the genes encoding the best-characterised glucose transporters in cells was quantified in real-time. In addition to GLUT-1, the effect of the tested derivative on changes in the expression of GLUT-3 and GLUT-4 was also evaluated (Fig. 8). […]
# [1] = Homo sapiens, HCT-116, 72 h, MTS, 72-h incubation
compound,measurement,setting,value
Cc1c(NC(=O)c2cc(C(N)=O)nc3cc(F)ccc23)c(C(F)(F)F)nn1Cc1ccc(C#N)cc1 [BAY-876],SI (selectivity index) HCT 116 p53+/+,HCT 116 p53+/+; relative to NHDF,2.53
same,IC50,HCT 116 p53+/+; [1],1710 ± 270 nM
same,SI (selectivity index) HCT 116 p53-/-,HCT 116 p53-/-; relative to NHDF,0.40
same,IC50,HCT 116 p53-/-; [1],10800 ± 810 nM
same,IC50,NHDF,4330 ± 480 nM
same,SI (selectivity index) U-251,"U-251; 2D monolayer, relative to NHDF",< 0.17
same,IC50,"U-251; Homo sapiens, U-251, 72 h, 2D monolayer, MTS, 72-h incubation",> 25000 nM
same,activity in U-251,U-251; at 25 µM,not active
same,SI (selectivity index) AsPC-1,AsPC-1; relative to NHDF,27.06
same,IC50,"AsPC-1; Homo sapiens, ASPC1, 72 h, MTS, 72-h incubation",160 ± 10 nM
same,SI (selectivity index) PANC-1,PANC-1; relative to NHDF,123.71
same,IC50,"PANC-1; Homo sapiens, PANC-1, 72 h, MTS, 72-h incubation",35 ± 4 nM
same,GLUT-1 mRNA level vs control,GLUT-1,increased its expression
